± gives the expanded uncertainty stated by the source.
Test: xn = mol fraction of the nth substance listed
Conditions: Gas, Buoyancy - hydrostatic balance with magnetic suspension - one sinker

[HH] [hydrogen] + N#N
Conditions	mass density [kg/m3]
260.04 K, 11002 kPa, x2 = 0.9	130.507 ± 0.071
260.04 K, 12001 kPa, x2 = 0.9	141.918 ± 0.071
260.04 K, 13005 kPa, x2 = 0.9	153.211 ± 0.072
260.04 K, 14004 kPa, x2 = 0.9	164.255 ± 0.072
260.04 K, 15004 kPa, x2 = 0.9	175.116 ± 0.072
260.04 K, 16007 kPa, x2 = 0.9	185.789 ± 0.072
260.04 K, 17014 kPa, x2 = 0.9	196.279 ± 0.073
260.04 K, 18009 kPa, x2 = 0.9	206.415 ± 0.073
260.04 K, 19010 kPa, x2 = 0.9	216.361 ± 0.074
260.04 K, 19736 kPa, x2 = 0.9	223.429 ± 0.077
274.98 K, 997 kPa, x2 = 0.9	11.103 ± 0.061
274.98 K, 1997 kPa, x2 = 0.9	22.285 ± 0.062
274.99 K, 997 kPa, x2 = 0.95	11.688 ± 0.064
274.99 K, 998 kPa, x2 = 0.5001	6.537 ± 0.04
274.99 K, 1998 kPa, x2 = 0.5001	13.041 ± 0.041
274.99 K, 1998 kPa, x2 = 0.95	23.478 ± 0.065
274.99 K, 2986 kPa, x2 = 0.95	35.164 ± 0.065
274.99 K, 2997 kPa, x2 = 0.9	33.49 ± 0.062
274.99 K, 2998 kPa, x2 = 0.5001	19.501 ± 0.041
274.99 K, 3997 kPa, x2 = 0.5001	25.901 ± 0.041
274.99 K, 3997 kPa, x2 = 0.9	44.699 ± 0.063
274.99 K, 3997 kPa, x2 = 0.95	47.147 ± 0.066
274.99 K, 4997 kPa, x2 = 0.5001	32.248 ± 0.042
274.99 K, 4997 kPa, x2 = 0.95	58.999 ± 0.067
274.99 K, 4998 kPa, x2 = 0.9	55.901 ± 0.064
274.99 K, 5997 kPa, x2 = 0.5001	38.535 ± 0.042
274.99 K, 5998 kPa, x2 = 0.9	67.065 ± 0.064
274.99 K, 5998 kPa, x2 = 0.95	70.84 ± 0.067
274.99 K, 6997 kPa, x2 = 0.5001	44.758 ± 0.042
274.99 K, 6998 kPa, x2 = 0.9	78.183 ± 0.065
274.99 K, 6998 kPa, x2 = 0.95	82.636 ± 0.068
274.99 K, 7997 kPa, x2 = 0.5001	50.911 ± 0.043
274.99 K, 7998 kPa, x2 = 0.9	89.232 ± 0.065
274.99 K, 8000 kPa, x2 = 0.95	94.385 ± 0.069
274.99 K, 8998 kPa, x2 = 0.5001	57.003 ± 0.043
274.99 K, 9000 kPa, x2 = 0.9	100.212 ± 0.066
274.99 K, 9000 kPa, x2 = 0.95	106.023 ± 0.069
274.99 K, 9998 kPa, x2 = 0.5001	63.009 ± 0.043
274.99 K, 9998 kPa, x2 = 0.9	111.047 ± 0.066
274.99 K, 10001 kPa, x2 = 0.95	117.586 ± 0.07
274.99 K, 10998 kPa, x2 = 0.5001	68.948 ± 0.044
274.99 K, 11001 kPa, x2 = 0.9	121.821 ± 0.067
274.99 K, 11002 kPa, x2 = 0.95	129.012 ± 0.07
274.99 K, 11996 kPa, x2 = 0.5001	74.789 ± 0.044
274.99 K, 12001 kPa, x2 = 0.9	132.405 ± 0.067
274.99 K, 12003 kPa, x2 = 0.95	140.289 ± 0.07
274.99 K, 13000 kPa, x2 = 0.5001	80.586 ± 0.044
274.99 K, 13002 kPa, x2 = 0.9	142.866 ± 0.067
274.99 K, 13002 kPa, x2 = 0.95	151.394 ± 0.071
274.99 K, 13998 kPa, x2 = 0.5001	86.267 ± 0.045

From the NIST ThermoML archive (doi:10.1021/acs.jced.7b00694)
